Results published in US10676446B2, “Bicyclic quinazolinone derivatives” (Hoffmann-La Roche Inc., priority 2015, dated 2020).

Target: human ATX (autotaxin, ENPP2), His-tagged (Homo sapiens (Human), UniProt Q13822)
Test: Human ATX enzyme inhibition assay (fluorescence quenching, MR121 substrate)
Format: biochemical
Settings: 30 nM ATX, 1 μM MR121 substrate, 30° C., pH 8.0
Experimental: Human ATX Enzyme Inhibition Assay
ATX inhibition was measured by a fluorescence quenching assay using a specifically labeled substrate analogue (MR121 substrate). To obtain this MR121 substrate, BOC and TBS protected 6-amino-hexanoic acid (R)-3-({2-[3-(2-{2-[2-(2-amino-ethoxy)-ethoxy]-ethoxy}-ethoxy)-propionylamino]-ethoxy}-hydroxy-phosphoryloxy)-2-hydroxy-propyl ester (Ferguson et al., Org. Lett. 2006, 8, 2023) was labeled with MR121 fluorophore [CAS RN 185308-24-1], 1-(3-carboxypropyl)-11-ethyl-1,2,3,4,8,9,10,11-octahydro-dipyrido[3,2-b:2′,3′-i]phenoxazin-13-ium) on the free amine of the ethanolamine side and then, after deprotection, subsequently with tryptophan on the side of the aminohexanoic acid.
Assay working solutions were made as follows:
Assay buffer (50 mM Tris-HCl, 140 mM NaCl, 5 mM KCl, 1 mM CaCl2, 1 mM MgCl2, 0.01% Triton-X-100, pH 8.0;
ATX solution: ATX (human His-tagged) stock solution (1.08 mg/mL in 20 mM bicine, pH 8.5, 0.15 M NaCl, 10% glycerol, 0.3% CHAPS, 0.02% NaN3), diluted to 1.4-2.5× final concentration in assay buffer;
MR121 substrate solution: MR121 substrate stock solution (800 μM MR121 substrate in DMSO), diluted to 2-5× final concentration in assay buffer.
Test compounds (10 mM stock in DMSO, 8 μL) were obtained in 384 well sample plates (Corning Costar #3655) and diluted with 8 μL DMSO. Row-wise serial dilutions were made by transferring 8 μL cpd solution to the next row up to row O. The compound and control solutions were mixed five times and 2 μL were transferred to 384 well assay plates (Corning Costar #3702). Then, 15 μL of 41.7 nM ATX solution was added (30 nM final concentration), mixed five times and then incubated for 15 minutes at 30° C. 10 μL of MR121 substrate solution was added (1 μM final concentration), mixed 30 times and then incubated for 15 minutes at 30° C.

For `CO[C@@H](C)C(=O)N1CCC(c2ccc3ncn(CC(=O)N(C)Cc4ccc(Cl)c(Cl)c4)c(=O)c3c2)CC1` [Example 168], the IC50 was 27 nM.

`CN(Cc1ccc(C#N)c(Cl)c1)C(=O)Cn1cnc2ccc(C3CCN(C(=O)C4COC4)CC3)cc2c1=O` [Example 142] was tested, and the IC50 was 60 nM.

`CC(=O)N1CCN(c2ccc3ncn(CC(=O)N(C)Cc4cc(Cl)nc(Cl)c4)c(=O)c3c2)CC1` [Example 46] was tested, and the IC50 was 184 nM.

Work on `O=C(Cn1cnc2ccc(N3CCN(CC4CCOC4)CC3)cc2c1=O)NCc1ccc(Cl)c(Cl)c1` (stereo not drawn) [Example 97] yielded an IC50 of 4 nM.

`COCCC(=O)N1CCC(c2cc3c(=O)n(CC(=O)N(C)Cc4ccc(C#N)c(Cl)c4)cnc3cn2)CC1` [Example 190, N-[(3-Chloro-4-cyanophenyl)methyl]-2-[6-[1-(3-methoxypropanoyl)piperidin-4-yl]-4-oxopyrido[3,4-d]pyrimidin-3-yl]-N-methylacetamide] was tested, and the IC50 was 1 nM.

`CC(=O)N1CCN(c2ccc3ncn(CC(=O)NCc4ccc(S(C)(=O)=O)c(C)c4)c(=O)c3c2)CC1` [Example 40] was tested, and the IC50 was 1560 nM.

Work on `CC(=O)N1CCN(c2ccc3ncn(CC(=O)N(C)Cc4ccc(C#N)c(Cl)c4)c(=O)c3c2)CC1` [Example 56, 2-[6-(4-Acetylpiperazin-1-yl)-4-oxoquinazolin-3-yl]-N-[(3-chloro-4-cyanophenyl)methyl]-N-methylacetamide] yielded an IC50 of 8 nM.

`CC(=O)N1CCN(c2ccc3ncn(CC(=O)NCc4ccc(C#N)nc4)c(=O)c3c2)CC1` [Example 18] was tested, and the IC50 was 14 nM.

Work on `CN(Cc1ccc(Cl)c(C#N)c1)C(=O)Cn1cnc2ccc(C3CCN(CC4CCOC4)CC3)cc2c1=O` (stereo not drawn) [Example 144, N-[(4-Chloro-3-cyanophenyl)methyl]-N-methyl-2-[4-oxo-6-[1-(oxolan-3-ylmethyl)piperidin-4-yl]quinazolin-3-yl]acetamide] yielded an IC50 of 86 nM.

Work on `CC(=O)N1CCN(c2ccc3ncn(CC(=O)NC(CC(=O)Nc4ccccc4)c4ccc(Cl)cc4)c(=O)c3c2)CC1` (stereo not drawn) [Example 3] yielded an IC50 of 198 nM.

`COCCN1CCN(c2ccc3ncn(CC(=O)N(C)Cc4ccc(Cl)c(Cl)c4)c(=O)c3c2)CC1` [Example 105] was tested, and the IC50 was 59 nM.

`CN(Cc1ccc(C#N)c(Cl)c1)C(=O)Cn1cnc2ccc(C3CCN(C(=O)C4CC(F)C4)CC3)cc2c1=O` (stereo not drawn) [Example 138] was tested, and the IC50 was 3 nM.

Work on `CC(=O)N1CCC(c2ccc3ncn(CC(=O)N(C)Cc4ccc(C#N)c(F)c4)c(=O)c3c2)CC1` [Example 127] yielded an IC50 of 9 nM.

`CC(=O)N1CCC(c2cc3c(=O)n(CC(=O)N(C)Cc4ccc(C#N)c(Cl)c4)cnc3cn2)CC1` [Example 189, 2-[6-(1-Acetylpiperidin-4-yl)-4-oxopyrido[3,4-d]pyrimidin-3-yl]-N-[(3-chloro-4-cyanophenyl)methyl]-N-methylacetamide] showed an IC50 of 1 nM.

Work on `CC(=O)N1CCN(c2ccc3ncn(CC(=O)NCc4ccc(C#N)cc4OCC(F)(F)F)c(=O)c3c2)CC1` [Example 33] yielded an IC50 of 245 nM.

Work on `O=C(Cn1cnc2ccc(N3CCN(C(=O)C4CCC4)CC3)cc2c1=O)NCc1ccc(Cl)c(Cl)c1` [Example 63] yielded an IC50 of 11 nM.

`CC(=O)N1CCN(c2ccc3ncn(CC(=O)NCc4ccc(S(F)(F)(F)(F)F)cc4)c(=O)c3c2)CC1` [Example 39] showed an IC50 of 12 nM.

`CN(Cc1ccc(C#N)c(Cl)c1)C(=O)Cn1cnc2ccc(C3CCN(C(=O)CO[N+](=O)[O-])CC3)cc2c1=O` [Example 186, [2-[4-[3-[2-[(3-Chloro-4-cyanophenyl)methyl-methylamino]-2-oxoethyl]-4-oxoquinazolin-6-yl]piperidin-1-yl]-2-oxoethyl]nitrate] showed an IC50 of 4 nM.

`CC(=O)N1CCN(c2ccc3ncn(CC(=O)NC(C)c4ccc(Cl)cc4)c(=O)c3c2)CC1` (stereo not drawn) [Example 13] was tested, and the IC50 was 478 nM.

`CN(Cc1ccc(C#N)c(Cl)c1)C(=O)Cn1cnc2ccc(C3CCN(C(=O)C4CC(F)(F)C4)CC3)cc2c1=O` [Example 140] was tested, and the IC50 was 47 nM.

`O=C(Cn1cnc2ccc(N3CCN(CC4CCC4)CC3)cc2c1=O)NCc1ccc(Cl)c(Cl)c1` [Example 96] showed an IC50 of 11 nM.

Molecule `CC(=O)N1CCN(c2ccc3ncn(CC(=O)NC(CC(=O)Nc4ccccc4)c4ccc(C(F)(F)F)cc4)c(=O)c3c2)CC1` (stereo not drawn) [Example 7] has an IC50 of 84 nM.

`COC(=O)CN1CCN(c2ccc3ncn(CC(=O)NCc4ccc(Cl)c(Cl)c4)c(=O)c3c2)CC1` [Example 93, Methyl 2-[4-[3-[2-[(3,4-dichlorophenyl)methylamino]-2-oxoethyl]-4-oxoquinazolin-6-yl]piperazin-1-yl]acetate] gave an IC50 of 29 nM.

`COCC(=O)N1CCC(c2ccc3ncn(CC(=O)N(Cc4ccc(Cl)c(Cl)c4)C4CC4)c(=O)c3c2)CC1` [Example 146, N-Cyclopropyl-N-[(3,4-dichlorophenyl)methyl]-2-[6-[1-(2-methoxyacetyl)piperidin-4-yl]-4-oxoquinazolin-3-yl]acetamide] showed an IC50 of 1 nM.

In the case of `CC(=O)N1CCC(c2ccc3ncn(CC(=O)N(C)Cc4ccc(C#N)c(Cl)c4)c(=O)c3c2)CC1` [Example 125], the IC50 is reported as 7 nM.

Work on `O=C(Cn1cnc2ccc(N3CCN(C(=O)C4CCCCC4)CC3)cc2c1=O)NCc1ccc(Cl)c(Cl)c1` [Example 65] yielded an IC50 of 10 nM.

In the case of `COCC(=O)N1CCC(c2ccc3ncn(CC(=O)N(C)Cc4ccc(Cl)c(Cl)c4)c(=O)c3c2)CC1` [Example 171], the IC50 is reported as 3 nM.

With `CCC(=O)N1CCN(c2ccc3ncn(CC(=O)N(C)Cc4ccc(Cl)c(Cl)c4)c(=O)c3c2)CC1` [Example 68] the IC50 was 4 nM.

`O=C(Cn1cnc2ccc(N3CCN(Cc4cnc[nH]4)CC3)cc2c1=O)NCc1ccc(Cl)c(Cl)c1` [Example 101] gave an IC50 of 64 nM.

With `CC(=O)N1CCN(c2ccc3ncn(CC(=O)NCCc4ccc(Cl)c(Cl)c4)c(=O)c3c2)CC1` [Example 49] the IC50 was 179 nM.

`CN(Cc1ccc(Cl)c(Cl)c1)C(=O)Cn1cnc2ccc(N3CCN(C(=O)C4(C)COC4)CC3)cc2c1=O` [Example 80] was tested, and the IC50 was 12 nM.

`CN(Cc1ccc(Cl)c(Cl)c1)C(=O)Cn1cnc2ccc(C3CCN(C(=O)C4CCOC4)CC3)cc2c1=O` (stereo not drawn) [Example 182] gave an IC50 of 8 nM.

`CN(Cc1ccc(C#N)c(Cl)c1)C(=O)Cn1cnc2ccc(C3CCN(C(=O)C4CC(Cl)C4)CC3)cc2c1=O` (stereo not drawn) [Example 139] gave an IC50 of 18 nM.

For `CCN(Cc1ccc(Cl)c(Cl)c1)C(=O)Cn1cnc2ccc(N3CCN(C(C)=O)CC3)cc2c1=O` [Example 116, 2-[6-(4-Acetylpiperazin-1-yl)-4-oxoquinazolin-3-yl]-N-[(3,4-dichlorophenyl)methyl]-N-ethylacetamide], the IC50 was 16 nM.

For `O=C(Cn1cnc2ccc(N3CCN(C(=O)NC4CC4)CC3)cc2c1=O)NCc1ccc(Cl)c(Cl)c1` [Example 83], the IC50 was 30 nM.

With `COCCC(NC(=O)Cn1cnc2ccc(N3CCN(C(C)=O)CC3)cc2c1=O)c1ccc(Cl)c(Cl)c1` (stereo not drawn) [Example 153, 2-[6-(4-Acetylpiperazin-1-yl)-4-oxoquinazolin-3-yl]-N-[1-(3,4-dichlorophenyl)-3-methoxypropyl]acetamide] the IC50 was 36 nM.

`CC(=O)N1CCN(c2ccc3ncn(CC(=O)NCc4ccc(Cl)c(C(F)(F)F)c4)c(=O)c3c2)CC1` [Example 34] showed an IC50 of 24 nM.

In the case of `CO[C@H](C)C(=O)N1CCC(c2ccc3ncn(CC(=O)N(C)Cc4ccc(C#N)c(Cl)c4)c(=O)c3c2)CC1` [Example 158], the IC50 is reported as 2 nM.

`CC(=O)N1CCN(c2ccc3ncn(CC(=O)NCc4ccc([N+](=O)[O-])cc4)c(=O)c3c2)CC1` [Example 21] gave an IC50 of 52 nM.

With `O=C(Cn1cnc2ccc(N3CCN(C(=O)C4CCCC4)CC3)cc2c1=O)NCc1ccc(Cl)c(Cl)c1` [Example 64] the IC50 was 4 nM.

Molecule `CN(Cc1ccc(Cl)c(Cl)c1)C(=O)Cn1cnc2ccc(C3CCN(C(=O)CS(N)(=O)=O)CC3)cc2c1=O` [Example 165, N-[(3,4-Dichlorophenyl)methyl]-N-methyl-2-[4-oxo-6-[1-(2-sulfamoylacetyl)piperidin-4-yl]quinazolin-3-yl]acetamide] has an IC50 of 20 nM.

Molecule `CC(=O)N1CCN(c2ccc3ncn(CC(=O)NC(CC(=O)N(C)C)c4ccc(Cl)cc4)c(=O)c3c2)CC1` (stereo not drawn) [Example 2] has an IC50 of 360 nM.

`COCCOCC(=O)N1CCC(c2ccc3ncn(CC(=O)N(C)Cc4ccc(Cl)c(Cl)c4)c(=O)c3c2)CC1` [Example 166] showed an IC50 of 627 nM.

`CC(C)OCC(=O)N1CCC(c2ccc3ncn(CC(=O)N(C)Cc4ccc(C#N)c(Cl)c4)c(=O)c3c2)CC1` [Example 135] was tested, and the IC50 was 1 nM.

`NS(=O)(=O)CC(=O)N1CCN(c2ccc3ncn(CC(=O)NCc4ccc(Cl)c(Cl)c4)c(=O)c3c2)CC1` [Example 71] showed an IC50 of 26 nM.

`C[C@H](O)C(=O)N1CCC(c2ccc3ncn(CC(=O)N(C)Cc4ccc(Cl)c(Cl)c4)c(=O)c3c2)CC1` [Example 175] showed an IC50 of 15 nM.

With `O=C(Cn1cnc2ccc(N3CCN(CCO)CC3)cc2c1=O)NCc1ccc(Cl)c(Cl)c1` [Example 94, N-[(3,4-Dichlorophenyl)methyl]-2-[6-[4-(2-hydroxyethyl)piperazin-1-yl]-4-oxoquinazolin-3-yl]acetamide] the IC50 was 67 nM.

With `CC(=O)N1CCN(c2ccc3ncn(CC(=O)NCc4noc(-c5ccc(Cl)cc5)n4)c(=O)c3c2)CC1` [Example 51] the IC50 was 51 nM.
